The test system of test [1] is NF-κB-mediated TNFα synthesis in human monocytes. The test can be described thus: cells. Type of test: cell-based. The conditions noted are these: Monocyte, LPS 125 ng/ml, 18 hours, TNFα ELISA, read-out: IC50 (inhibition of NF-κB-mediated TNFα synthesis). (In general: An ELISA detects its analyte on a solid surface through an enzyme-linked reagent.)
The subject of test [2] is human tissue factor promoter (luciferase) in RAW-A3 cells (RAW 264.7 transfectant). The test is described as follows: Inhibition of NF-κB-mediated expression of the human tissue factor gene: promoter-luciferase reporter in RAW-A3 monocyte cells. The class given is cell-based. As to conditions: read-out: IC50 (tissue factor promoter-driven luciferase activity). The protocol:
Inhibition of the NF-κB-mediated Gene Expression of the Human Tissue Factor Gene in Monocytes
Therefore, for the further detection of the inhibition of the NFκB-mediated gene expression by the inhibitors according to the invention, the following biological test was carried out:
The promoter fragment of the human tissue factor gene which contains the NF-κB binding sequence was cloned with oligonucleotide primers of the sequence 5′-TCCCTCGAGATCTCCCAGAGGCAAACTGCCAGAT-3′ (5′ primer of position −925) and 5′-TCCTCGAGCCATGGCTACCAGTTGGGCGGCGAGATC-3′ (3′ primer containing the ATG start codon of the coding sequence of the tissue factor gene) by means of the polymerase chain reaction (PCR) and fused by means of an NcoI/XhoI cloning with the luciferase start codon in the plasmid pGL3-basic vector (Promega Corp. 2800 Woods Hollow Road, Madison, Wis. 53711-5399 USA). […]
After a further 6 hours, the culture supernatant is aspirated and the cells are processed for the measurement of the luciferase activity according to the procedure of the “Luciferase Assay System” (Technical Bulletin of Promega, 2800 Woods Hollow Road, Madison, Wis. 53711-5399 USA. Products E4030, E1483, E1501). The cell lyzate is incubated with the luciferase assay substrate and measured in a luminometer to measure the emitted light. […]

In test [3] the test system is NF-κB-mediated TNFα synthesis in human monocytes. The test is described as follows: cells. The class given is cell-based. As to conditions: Monocyte, 100 nM PMA, read-out: IC50 value after PMA stimulus (TNFα synthesis).
The subject of test [4] is adhesion of human neutrophils to TNF-α-stimulated HUVEC cells. The test can be described thus: ELAM-dependent adhesion of human neutrophils to TNF-α-stimulated HUVEC. The class given is cell-based. The protocol:
(§1) The influence of compound I-3-R on the expression of ELAM-1 was checked in two different test batches. In one functional batch, the adhesion of human neutrophils to TNF-α-stimulated HUVEC cells was measured. The expression of ELAM-1 on the surface of the HUVECs was determined using a fluorescence-labeled ELAM-1-specific monoclonal antibody by means of FACS (cell sorting) analysis.
Experimental Procedure: ELAM-dependent Neutrophil Adhesion to Endothial Cells
The neutrophils were isolated from human blood (100 ml). To this end, 3.5 ml of Polyprep was introduced into a centrifuge bucket and carefully coated with 5 ml of blood. After centrifuging at 2100 min^−1 for 30 minutes, the neutrophil band in the center of the centrifuge bucket was aspirated. After 1:2 dilutions in Clonetics endothelial cell basal medium (EBM), the neutrophils were again centrifuged at 1000 min^−1 for 20 minutes and then made up to a cell concentration of 10^6 cells/ml.
The umbilical cord endothelial cells were grown to confluence in EBM+10% FCS in 96 well microtiter plates. At the start of the experiment, the medium was replaced by EBM without FCS and the experimental substances then employed. After 20 minutes, the HUVECs were stimulated using 10 nM TNF-α. […] The fluorescence of the adherent neutrophils was then measured in a fluorescence photometer.

Test [5] concerns ELAM-1 expression in HUVECs. The test is described as follows: TNF-induced expression of ELAM-1 on HUVEC surface (FACS, anti-ELAM-1 antibody). Type of test: cell-based, human. The protocol: Inhibition of the NF-κB-mediated Gene Expression of the Adhesion Protein ELAM-1 to Human Umbilical Cord Endothelial Cells (HUVEC)
as §1
Experimental Procedure Quantitative Measurement of the TNF-induced Expression of ELAM-1 in HUVECs
Umbilical cord endothelial cells (HUVEC) were cultured as described above and incubated for 4 hours in the presence or absence of test substances in the presence or absence of 10 ng/ml of TNF. […] After centrifuging and washing again, the cells were taken up in 1 ml of PBS plus 1% BSA and measured at 488 nm in a flow cytometer (Becton and Dickinson). The intensity of the fluorescence as a function of bound anti-ELAM-1 antibody per cell is measured by this process. 5000 cells were measured for each value.

Test [6] has as its system interleukin-2 promoter (luciferase) in SS-1 cell line. The test can be described thus: Inhibition of interleukin-2 synthesis: interleukin-2 promoter-luciferase reporter cell line (SS-1), PMA/ionomycin induced. As to conditions: IL-2 promoter reporter cell line, PMA 5 ng/ml + ionomycin, 24 hours; read-out: IC50 (inhibition of induction of luciferase activity to 50%). Type of test: cell-based. An excerpt: Inhibition of Interleukin-2 Synthesis
For the testing of the inhibitory action of cyclopentabenzene derivatives on interleukin-2 synthesis, a receptor gene cell line was used which contains the interleukin-2 promoter coupled to the luciferase gene. The promoter contains the DNA sequence from −480 to +4. The vector employed is pGL3; the starting cell line in which the total construct has been stably transfected is SS-1. The culture medium for this cell line was RPMI 1640 (Gibco, Rockille). It additionally contained: 100 μg/ml of streptomycin, 100 U/ml of penicillin, 2 mM L-glutamine, 10% heat-inactivated FBS and 800 μg/ml of G418 sulfate.
The reporter gene test cell line was inoculated into 96-well plates to 1×10^6 cells per well in Phenol Red-free RPMI with the additives and incubated at 37° C. in an atmosphere of 5% CO2, 95% air with phorbol 12-myristate 13-acetate (PMA; 5 ng/ml) and ionomycin ([…]; 0.4 μg/ml) for 24 hours. The test substances were added simultaneously with PMA.
For the generation of the luminescence, LucLite™ solution (Packard, Meriden, Conn.) was added to a concentration of 100 μl/well and the luminescence was measured in a luminometer (Luminoskan, Labsystems) immediately after addition.

Like-named read-outs stand apart in the source and are kept apart here.

By IC50 is commonly meant the concentration that gives 50% inhibition. As to `COC(=O)CN[C@@H]1C[C@@H](c2ccccc2)[C@]2(c3ccc(OC)cc3)Oc3cc(OC)cc(OC)c3[C@]12O` [Example I-5, methyl (1α,3β,3aβ,8bβ)-N-(3,3a-dihydro-6,8-dimethoxy-3a-(4-methoxyphenyl)-3-phenyl-cyclopenta[b]benzofuran-8b(2H)-ol-1-yl)-2-aminoacetate], the IC50 in test [1] amounted to 500 nM; in test [2] (RAW264.7, 6 h), 2000 nM; in test [3], 90 nM.

For the molecule `COc1ccc([C@@]23Oc4cc(OC)cc(OC)c4[C@]2(O)[C@H](O)C[C@H]3c2ccccc2)cc1` (racemic) [Example I-3-R], in test [4] (10 nM TNF-α, 4 hours, inhibited to 50%), the “Inhibition of adhesion of neutrophils to TNF-α-stimulated HUVECs” value was 50%. Further, in test [4] (neutrophil adhesion to TNF-α-stimulated HUVECs), the “Concentration at which maximum inhibition of cell adhesion was determined” value was determined as 50 nM. In addition, the “Completeness of inhibition of ELAM-1 expression” value in test [5] (HUVEC, 10 ng/ml TNF, 4 hours, FACS, all concentrations investigated) is “completely inhibited at none of the concentrations investigated”. The “Inhibition of expression of ELAM-1 on the cell surface (maximum inhibition)” value in test [5] (TNF-α-stimulated HUVECs, inhibited to 50%) came out at 50%. Moreover, the IC50 in test [1] was 100 nM; in test [6], 5 to 10 nM.

`COc1ccc([C@@]23Oc4cc(OC)cc(OC)c4[C@]2(O)[C@@H](O)C[C@H]3c2ccccc2)cc1` (racemic) [Example I-1, (1α,3α,3aα,8bα)-3,3a-dihydro-6,8-dimethoxy-3a-(4-methoxyphenyl)-3-phenyl-1H-cyclopenta[b]benzofuran-1,8b(2H)-diol]: the IC50 is 500 nM in test [1]; 20000 nM in test [2] (RAW264.7, RAW-A3 cells, induction with 15% serum, 6 hours); 100 nM in test [3].

Source of the values: patent US6420393B1, “Cyclopentabenzofuran derivatives and their use” (Bayer Aktiengesellschaft, priority 1998, dated 2002).
